Test results taken from US4256642A, “Pharmaceutically active 2,9-dioxatricyclo[4,3,1,0^3,7 ] decanes” (Kali-Chemie Pharma GmbH, priority 1975, dated 1981).

Tests used:
[1] = system: Mouse; assay: Lowered rectal temp. p.o. (Mouse); format: in vivo; conditions: po
Description: (§1) The in vivo activity of representative compounds of the present invention was determined as set forth in Table I below by administration to mice in pharmaceutically effective amounts.
Lowered rectal temp. ED50 p.o.(*)

[2] = system: Mouse; assay: Analgesia, Phenylbenzoquinone test (Writing), p.o. (Mouse); format: in vivo; conditions: for ED50: po, Phenylbenzoquinone test; for Analgesia relative to Propoxyphene: footnote (b) to analgesia ED50 p.o.
Description: as §1
Analgesia ED50 p.o.(a)(*)
(a) Phenylbenzoquinone test (Writing

[3] = Acute toxicity LD50 i.p. (Mouse); conditions: in vivo, ip
Description: as §1

Row | Structure (SMILES) | ED50 [1] [mg/kg] | ED50 [2] [mg/kg] | LD50 [3] [mg/kg] | Analgesia relative to Propoxyphene [2]
1 | COC1O[C@H]2O[C@]3(C)[C@@H](O)C[C@H]([C@H]2C)[C@H]13 (some centres unmarked) [compound 1246] | 100 | 68 | > 800 | –
2 | COC1O[C@H]2O[C@]3(C)[C@H](O)C[C@H]([C@H]2C)[C@H]13 (some centres unmarked) [compound 1561] | 100 | 100 | > 800 | –
3 | C[C@@H]1[C@H]2OC[C@H]3[C@@H]1C[C@H](O)[C@@]3(C)O2 [compound 2422] | 400 | < 50 | 920 | –
4 | CNC(=O)O[C@H]1C[C@@H]2[C@H](C)[C@H]3OC[C@@H]2[C@]1(C)O3 [compound 2624] | 32 | < 50 | 739 | –
5 | CC(=O)O[C@H]1C[C@@H]2[C@H](C)[C@H]3OC[C@@H]2[C@]1(C)O3 [compound 2614] | 100 | < 50 | 822 | –
6 | C[C@@H]1[C@H]2OC[C@H]3[C@@H]1C[C@@H](O)[C@@]3(C)O2 [compound 2455] | 10 | < 10 | 406 | ≥ Propoxyphene
7 | CNC(=O)O[C@@H]1C[C@@H]2[C@H](C)[C@H]3OC[C@@H]2[C@]1(C)O3 [compound 2648] | < 100 | < 10 | 800 | –
8 | C[C@@H]1[C@H]2OC[C@H]3[C@@H]1CC(=O)[C@@]3(C)O2 [compound 2619] | 25 | < 10 | 1600 | ≥ Propoxyphene
